The nature of this data set: HPLC creatine levels after storage of other aqueous gels, jellies, suspensions and water controls. It counts as physicochemical. The conditions noted are these: 10 g in 50 ml water, stored at 4 deg Celsius and room temperature, after one month. The protocol:
A spectrophotometric scan of the colloidal creatine (10 mg ml^−1 dissolved in HPLC mobile phase), the CARG (1:15 dilution in HPLC mobile phase) and the HPLC mobile phase was performed to determine the appropriate detection wavelength for the HPLC assay. The scan was performed over a wavelength range from 190-950 nm. It was decided to use 220 nm as the detection wavelength.
Due to the viscous nature of the CARG it had to be diluted by a factor of 10 at the very least before samples could be injected onto the HPLC. In general a dilution factor of 1/15 was used in the analysis of the samples. The variation in peak area over the course of the experiment was not significant and gave a standard deviation of 1351126.18 (approximately equivalent to 0.13 mg ml^−1 creatine), see Tables 1 and 2.
Two aqueous gels, (A) and (B), were created containing colloidal creatine were made by mixing with water and heating to 55 deg Celsius:
This was stored in a 100 ml plastic dispensing container at room temperature. Creatine levels were measured after 3 months using the above HPLC method and found to have decreased by 22% at 4 deg Celsius and only 5% at room temperature.
Another oral product was made using colloidal creatine in standard commercially available jelly beans reconstituted in water. The concentrations of colloidal creatine per ml of reconstituted jelly bean were 0, 20, 50, 100 and 200 mg/ml. […]

`CN(CC(=O)O)C(=N)N` [creatine, creatine (2-(methylguanidino)ethanoic acid)]: the “loss of creatine content” value is reported as 90%.
